The results in this text go back to PubChem BioAssay (NCI).

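Tested at 5 concentrations; 48 h exposure; 96-well plates; endpoints linearly interpolated, else capped at highest concentration. The concentration for full growth arrest is given as TGI.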

Holding throughout (test): inhibition of tumour cell growth, NCI panel, 48 h
Assay [1] deals with M14 melanoma.
The test system of assay [2] is SNB-19 CNS.
For assay [3], the system named is NCI-H23 lung.
For assay [4], the system named is MALME-3M melanoma.
For assay [5], the system named is IGROV1 ovarian.
Assay [6] deals with KM12 colon.
In assay [7] the test system is SF-295 CNS.
The subject of assay [8] is SNB-75 CNS.
Assay [9] has as its system HS 578T breast.
Assay [10] has as its system NCI-H226 lung.

Turning to `C=C(C)[C@@]1(O)O[C@H]2C[C@@]3(C)OC(=CC3=O)/C(C)=C\[C@@H]3OC(=O)[C@@]1(C)[C@H]32`, the TGI in [1] was 37.5 µM; in assay [2] it was greater than 100 µM; in [3], greater than 31.6 µM; in assay [4], greater than 100 µM; in [5], 24.9 µM; in [6], 32.5 µM. For the same compound, the TGI in [7] was 66.9 µM; in [8], 68.3 µM; in assay [9] it was greater than 100 µM; in assay [10], 69.8 µM.

On to `COC(=O)c1c2c(cc3c1CC1(Cc4ccccc4C1=O)C3)CCC2` (stereo not given), for which the TGI in assay [1] was greater than 100 µM; in assay [2], greater than 100 µM; in [3] it was greater than 100 µM; in assay [4], 79.9 µM; in assay [5], greater than 100 µM; in assay [6] it was 61.5 µM. Besides, the TGI in assay [7] was greater than 100 µM; in [8] it was greater than 100 µM; in [9], greater than 100 µM; in assay [10], 44.2 µM.

As for `COc1c2cc([N+](=O)[O-])cc1CNC(=O)CN1CCOCCOCCN(CCOCCOCC1)CC(=O)NC2`, the TGI in [1], in assay [2], in [3], in assay [4], in assay [5] and in assay [6] was greater than 100 µM each time. The TGI in assay [7], in [8], in assay [9] and in assay [10] was greater than 100 µM throughout.

Take `CCOc1cc2c(cc1O)/C(=N\N)C[C@@H]1[C@@H]2CC[C@]2(C)[C@@H](O)CC[C@@H]12`: the TGI was greater than 41.7 µM in assay [1]; greater than 100 µM in [2]; 92.1 µM in assay [3]; 20.8 µM in assay [4]; 39.2 µM in assay [5]; 23 µM in assay [6]. The TGI in assay [7] is 6.15 µM; in assay [8], greater than 25.8 µM; in assay [9], greater than 27 µM; in assay [10] it was 29.2 µM.

With `O=C1C(N2CCCC2)=CC(=O)c2c(O)c(N3CCCC3)c(Cl)c(O)c21`, the TGI in assay [1], in [2], in assay [3], in assay [4], in assay [5] and in assay [6] was greater than 10 µM in each case. Further, the TGI in assay [7], in [8], in [9] and in assay [10] was greater than 10 µM each time.

Turning to `CNC(=O)c1ccccc1-[s+]1c2ccccc2c(=O)n1C` (stereo not given), the TGI in assay [1], in [2], in [3], in assay [4], in assay [5] and in assay [6] was greater than 100 µM throughout. In addition, the TGI in assay [7], in assay [9] and in assay [10] was greater than 100 µM in each case.

For the compound `O=C1c2ccccc2C(=O)N1n1c(Cc2ccccc2)n[nH]c1=O`, the TGI in [1], in assay [2], in assay [3], in assay [4], in [5] and in assay [6] was greater than 100 µM each time. Besides, the TGI in [7], in [8], in assay [9] and in assay [10] was greater than 100 µM in each case.

For `c1ccc(C2=NC3(CCCCC3)N(c3nc4ccccc4s3)N2)nc1`, the TGI in assay [1] was 59.2 µM; in assay [2], greater than 100 µM; in assay [3], 84.8 µM; in [4], greater than 100 µM; in assay [5] it was greater than 100 µM; in assay [6], 75.9 µM. In addition, the TGI is greater than 100 µM in [7], 76.6 µM in [8], greater than 100 µM in [9] and 65.6 µM in assay [10].

On to `CCC(C)[C@@H](NCc1ccccc1)[C@H](OCc1ccccc1)[C@@H]1COC(C)(C)O1` (stereo not given in full), for which the TGI in assay [1] is greater than 100 µM; in assay [2] it was 57.3 µM; in assay [3] it was 44.3 µM; in assay [4], 45.8 µM; in [5], 37.4 µM; in assay [6] it was 44.3 µM. Moreover, the TGI in assay [7] was 60.2 µM; in [8] it was greater than 100 µM; in assay [9], 70.7 µM; in assay [10], 30.6 µM.

Consider `CCOC(=O)CCCn1nnc(C(=O)OCC)c1C(=O)OCC`, for which the TGI in assay [2], in assay [3], in [4], in [5], in assay [6] and in assay [7] was greater than 100 µM throughout. The TGI in assay [8], in [9] and in [10] was greater than 100 µM each time.

As to `CC1(C)O[C@H]2Cn3c(c(C#N)c4ccccc43)[C@H]2O1`, the TGI in assay [1], in assay [2], in assay [3], in assay [4], in assay [5] and in assay [6] was greater than 100 µM throughout. Moreover, the TGI in assay [7], in [8] and in [9] was greater than 100 µM each time.

As for `O=c1c2ccccc2oc2nc3n(c(=O)c12)CCCS3`, the TGI in assay [1], in [2], in assay [3], in assay [4], in assay [5] and in assay [6] was greater than 100 µM throughout. Further, the TGI in [7], in [8], in [9] and in assay [10] was greater than 100 µM in each case.

On to `C=CCNC(=S)Nc1sc2c(c1C(=O)OCC)CC(C)CC2` (stereo not given), for which the TGI in assay [1] was 49.9 µM; in [2] it was 62.5 µM; in [3], greater than 100 µM; in [4], 45.8 µM; in assay [5] it was greater than 100 µM; in assay [6], greater than 100 µM. Also, the TGI in assay [7] is 59.5 µM; in assay [8] it was 64.7 µM; in assay [9] it was greater than 100 µM; in assay [10], 50.7 µM.

As to `O=C(Cc1ccccc1)NCCc1ccc(O)c(O)c1`, the TGI in assay [1], in [2], in [3], in assay [4], in assay [5] and in [6] was greater than 100 µM throughout. Further, the TGI in assay [7], in [8], in [9] and in assay [10] was greater than 100 µM in each case.

For `OCC1OC(c2scc3c(=S)nc[nH]c23)C(O)C1O` (stereo not given), the TGI in [1] is 60.3 µM; in assay [2], greater than 100 µM; in assay [3] it was 92.6 µM; in assay [4] it was greater than 72.9 µM; in assay [5], 46.5 µM; in [6] it was greater than 100 µM. Also, the TGI was greater than 92.8 µM in [7], 30.5 µM in assay [8], 6.52 µM in [9] and 85.4 µM in assay [10].

With `COC(=O)N1CC2(CO)C3CC=C(C(=O)Nc4ccccc4Br)C2C1C3Br` (stereo not given), the TGI in assay [1], in assay [2], in assay [3], in [4], in [5] and in assay [6] was greater than 50 µM throughout. Further, the TGI in assay [7], in assay [8], in assay [9] and in [10] was greater than 50 µM throughout.

With `COc1cc(/C=C2/SC(c3ccccc3)N(c3ccc(NC(C)=O)cc3)C2=O)cc(OC)c1OC` (stereo not given), the TGI in assay [1], in assay [2], in assay [3], in [4], in assay [6] and in assay [7] was greater than 100 µM each time. In addition, the TGI in [9] and in [10] was greater than 100 µM each time.

Take `O=c1cc(CNC2CCCC2)[nH]c(=O)[nH]1`: the TGI in [1], in assay [2], in [3], in assay [4], in assay [5] and in [6] was greater than 100 µM each time. The TGI in assay [7], in assay [8] and in [9] was greater than 100 µM in each case.

Regarding `C=C(C)C(=O)CC[C@@H](C)[C@H]1[C@@H](OC2OC(CO)C(O)C(O)C2O)C[C@@]2(C)[C@@H]3C[C@H](O)C4C(C)(C)[C@@H](OC5OC(CO)C(O)C(O)C5O)CC[C@@]45C[C@@]35CC[C@]12C` (stereo not given in full), the TGI in assay [1], in [2], in assay [3], in [4], in assay [5] and in assay [6] was greater than 100 µM each time. The TGI in assay [7], in [8] and in assay [9] was greater than 100 µM each time.

Take `COC(=O)c1cn(CCCC(=O)O)nn1`: the TGI in [2], in [3], in assay [4], in assay [5], in assay [6] and in [7] was greater than 100 µM in each case. Also, the TGI in [8], in assay [9] and in [10] was greater than 100 µM each time.

As for `O=C(Cn1c(=O)oc2ccc(C(=O)c3ccc(F)cc3)cc21)c1ccc([N+](=O)[O-])cc1`, the TGI in assay [1] is greater than 100 µM; in assay [2] it was greater than 100 µM; in assay [3] it was greater than 100 µM; in [4], greater than 100 µM; in [5], 78.3 µM; in [6] it was 87 µM. Besides, the TGI was greater than 100 µM in assay [8], 53.5 µM in assay [9] and greater than 100 µM in assay [10].

As to `COc1cc(/C=C/C(=O)OCC23CC[C@@]4(C(=O)O)CCC(C)[C@H](C)C4C2=CCC2[C@@]4(C)CC[C@H](O)C(C)(C)C4CC[C@]23C)ccc1O` (stereo not given in full), the TGI in assay [1] is 49.5 µM; in [2] it was greater than 100 µM; in [3], 15.6 µM; in assay [4], 27.5 µM; in assay [5] it was 57.2 µM; in assay [6] it was greater than 100 µM. Besides, the TGI is 73.9 µM in [7], 17.1 µM in assay [9] and 71.8 µM in assay [10].

With `O=C1CSC2(CC(/C=C/c3ccccc3)=NN2c2cccc(S(=O)(=O)O)c2)N1c1nc2ccccc2s1` (stereo not given), the TGI in assay [1] was greater than 100 µM; in assay [2], 51.7 µM; in [3], 56.7 µM; in assay [4], greater than 100 µM; in assay [5] it was 56.6 µM; in assay [6] it was 38.3 µM. The results for the TGI in assay [8], in [9] and in assay [10] were 59.2 µM, greater than 100 µM and greater than 100 µM, respectively.

Regarding `CN(C)CCNc1ccc(C(=O)NCCCN(C)CCCNC(=O)c2ccc(NCCN(C)C)c3c(=O)c4ccccc4[nH]c23)c2[nH]c3ccccc3c(=O)c12`, the TGI in assay [1] is 1.53 µM; in assay [2], 1.92 µM; in assay [3], 2.78 µM; in assay [4] it was 0.844 µM; in [5] it was 0.229 µM; in assay [6], 0.906 µM. Besides, the TGI worked out at 1.91 µM in assay [7], 1.75 µM in [9] and 0.148 µM in [10].

As to `CN1C/C(=C\c2cccs2)C2=NC(=S)NC(c3cccs3)C2C1` (stereo not given), the TGI in assay [1], in assay [2], in [3], in assay [4], in assay [5] and in [6] was greater than 100 µM throughout. Also, the TGI in assay [7], in assay [9] and in assay [10] was greater than 100 µM throughout.

Regarding `C1=C\SS/C=C\SS/C=C\SS/C=C\SS/1`, the TGI in assay [1], in [2], in assay [3], in [4], in [5] and in assay [6] was greater than 100 µM throughout. In addition, the TGI in [7], in assay [9] and in assay [10] was greater than 100 µM each time.

Take `COc1ccc(-c2nc(N)c(C#N)c3c2CCS(=O)(=O)c2ccc(C)cc2-3)cc1OC`: the TGI in assay [1] was greater than 100 µM; in assay [2], greater than 100 µM; in assay [3], greater than 100 µM; in [4], greater than 100 µM; in assay [5] it was greater than 100 µM; in [6], 52.3 µM. Further, the TGI was 69.7 µM in assay [8], 77.6 µM in [9] and greater than 100 µM in assay [10].
